Test results published in US20230085307A1, “PYRIDAZINONE COMPOUND AND HERBICIDE” (NISSAN CHEMICAL CORPORATION, priority 2019, published 2023).

Experiments:
Chinese sprangletop = assay: Test Example 3: herbicidal effect by foliage application, Wagner pot (Table 18, symbol D); assay type: in vivo, chinese sprangletop (Leptochloa chinensis); conditions: amount of applied herbicide 320 g/ha
Outline: (§1)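 Plants were sown in alluvial soil held under 0.1–0.5 cm standing water and grown 14 days in a greenhouse at 25–30 °C. An emulsifiable formulation, water-diluted to the set dose, was then sprayed onto the foliage, and effects were scored three weeks later using previously defined criteria.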

windgrass [1] = assay: Test Example 4: herbicidal effect by soil treatment (Table 19, symbol L); assay type: in vivo, windgrass (Apera spica-venti); conditions: amount of applied herbicide 320 g/ha
Outline: (§2)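 Pre-emergence style soil spray: seeds under ~1.5 cm sterilized diluvial soil received a uniform coat of emulsion diluted to the predetermined herbicide amount. Greenhouse 25–30° C; readout at week three on previously defined criteria.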

barnyard grass [2] = assay: Test Example 3: herbicidal effect by foliage application, Wagner pot (Table 18, symbol H); assay type: in vivo, barnyard grass (Echinochloa crus-galli); conditions: amount of applied herbicide 320 g/ha
Outline: as §1

velvetleaf = assay: Test Example 4: herbicidal effect by soil treatment (Table 19, symbol M); assay type: in vivo, velvetleaf (Abutilon theophrasti); conditions: amount of applied herbicide 320 g/ha
Outline: as §2

oval-leafed pondweed = assay: Test Example 1: herbicidal activity, application before weed generation under submerged conditions (Table 16, symbol C); assay type: in vivo, oval-leafed pondweed (Monochoria vaginalis); conditions: amount of applied herbicide 320 g/ha
Outline: (§3)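 Emulsion formulation, water-diluted to set dose, was put onto the flooded surface (4 cm depth, alluvial soil) the same day weeds were sown and 2.5-leaf rice transplanted. After 3 weeks at 25-30 °C under glass, each species was rated 0 (≤5% kill) to 5 (≥90% kill).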

barnyard grass [3] = assay: Test Example 4: herbicidal effect by soil treatment (Table 19, symbol H); assay type: in vivo, barnyard grass (Echinochloa crus-galli); conditions: amount of applied herbicide 320 g/ha
Outline: as §2

green foxtail [4] = assay: Test Example 4: herbicidal effect by soil treatment (Table 19, symbol G); assay type: in vivo, green foxtail (Setaria viridis); conditions: amount of applied herbicide 320 g/ha
Outline: as §2

redroot pigweed = assay: Test Example 4: herbicidal effect by soil treatment (Table 19, symbol N); assay type: in vivo, redroot pigweed (Amaranthus retroflexus); conditions: amount of applied herbicide 320 g/ha
Outline: as §2

green foxtail [5] = assay: Test Example 5: herbicidal effect by foliage application, plastic box (Table 20, symbol G); assay type: in vivo, green foxtail (Setaria viridis); conditions: foliage application, 320 g/ha, three weeks after application
Outline: (§4)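 Plants were sown into sterilized diluvial soil under about 1.5 cm cover and kept in a greenhouse at 25° C. to 30° C. Fourteen days on, foliage received an even spray of the diluted emulsion. Herbicidal or crop effect was judged three weeks afterwards.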

barnyard grass [6] = assay: Test Example 5: herbicidal effect by foliage application, plastic box (Table 20, symbol H); assay type: in vivo, barnyard grass (Echinochloa crus-galli); conditions: foliage application, 320 g/ha, three weeks after application
Outline: as §4

wild oat = assay: Test Example 5: herbicidal effect by foliage application, plastic box (Table 20, symbol I); assay type: in vivo, wild oat (Avena fatua); conditions: foliage application, 320 g/ha, three weeks after application
Outline: as §4

persian speedwell = assay: Test Example 5: herbicidal effect by foliage application, plastic box (Table 20, symbol R); assay type: in vivo, Persian speedwell (Veronica persica); conditions: foliage application, 320 g/ha, three weeks after application
Outline: as §4

lambsquarters = assay: Test Example 5: herbicidal effect by foliage application, plastic box (Table 20, symbol O); assay type: in vivo, lambsquarters (Chenopodium album); conditions: foliage application, 320 g/ha, three weeks after application
Outline: as §4

southern crabgrass = assay: Test Example 4: herbicidal effect by soil treatment (Table 19, symbol F); assay type: in vivo, southern crabgrass (Digitaria ciliaris); conditions: amount of applied herbicide 320 g/ha
Outline: as §2

rice flat sedge = assay: Test Example 3: herbicidal effect by foliage application, Wagner pot (Table 18, symbol E); assay type: in vivo, rice flat sedge (Cyperus iria); conditions: amount of applied herbicide 320 g/ha
Outline: as §1

windgrass [7] = assay: Test Example 5: herbicidal effect by foliage application, plastic box (Table 20, symbol L); assay type: in vivo, windgrass (Apera spica-venti); conditions: foliage application, 320 g/ha, three weeks after application
Outline: as §4

Japanese bulrush = assay: Test Example 1: herbicidal activity, application before weed generation under submerged conditions (Table 16, symbol B); assay type: in vivo, Japanese bulrush (Schoenoplectus juncoides); conditions: amount of applied herbicide 320 g/ha
Outline: as §3

SMILES | herbicidal effect on D: Chinese sprangletop (Chinese sprangletop) | herbicidal effect, L: windgrass (windgrass [1]) | herbicidal effect on H: barnyard grass (barnyard grass [2]) | herbicidal effect, M: velvetleaf (velvetleaf) | Herbicidal effect, C: oval-leafed pondweed (oval-leafed pondweed) | herbicidal effect, H: barnyard grass (barnyard grass [3]) | herbicidal effect, G: green foxtail (green foxtail [4]) | herbicidal effect, N: redroot pigweed (redroot pigweed) | G: green foxtail, herbicidal effect grade (green foxtail [5]) | H: barnyard grass, herbicidal effect grade (barnyard grass [6]) | I: wild oat, herbicidal effect grade (wild oat) | R: persian speedwell, herbicidal effect grade (persian speedwell) | O: lambsquarters, herbicidal effect grade (lambsquarters) | herbicidal effect, F: southern crabgrass (southern crabgrass) | herbicidal effect on E: rice flat sedge (rice flat sedge) | L: windgrass, herbicidal effect grade (windgrass [7]) | Herbicidal effect, B: Japanese bulrush (Japanese bulrush)
CCOc1ccccc1-c1sc2cc(F)ccc2c1-c1c(O)c(C)nn(C)c1=O [3-006] | 4 (Herbicidal rate of 70% or more and less than 90%) | 5 (Herbicidal rate of 90% or more (almost completely withered)) | 5 (Herbicidal rate of 90% or more (almost completely withered)) | 4 (Herbicidal rate of 70% or more and less than 90%) | 4 (Herbicidal rate of 70% or more and less than 90%) | 5 (Herbicidal rate of 90% or more (almost completely withered)) | 5 (Herbicidal rate of 90% or more (almost completely withered)) | 5 (Herbicidal rate of 90% or more (almost completely withered)) | 5 (Herbicidal rate of 90% or more (almost completely withered)) | 5 (Herbicidal rate of 90% or more (almost completely withered)) | 5 (Herbicidal rate of 90% or more (almost completely withered)) | 5 (Herbicidal rate of 90% or more (almost completely withered)) | 4 (Herbicidal rate of 70% or more and less than 90%) | 5 (Herbicidal rate of 90% or more (almost completely withered)) | 5 (Herbicidal rate of 90% or more (almost completely withered)) | 5 (Herbicidal rate of 90% or more (almost completely withered)) | 5 (Herbicidal rate of 90% or more (almost completely withered))
CCCC(=O)Oc1c(C)nn(C)c(=O)c1-c1c(-c2ccc(OC)cc2)sc2cc(F)ccc12 [3-008] | 4 (Herbicidal rate of 70% or more and less than 90%) | 0 (Herbicidal rate of 5% or less (almost no effect)) | 4 (Herbicidal rate of 70% or more and less than 90%) | 0 (Herbicidal rate of 5% or less (almost no effect)) | 5 (Herbicidal rate of 90% or more (almost completely withered)) | 0 (Herbicidal rate of 5% or less (almost no effect)) | 0 (Herbicidal rate of 5% or less (almost no effect)) | 5 (Herbicidal rate of 90% or more (almost completely withered)) | 3 (Herbicidal rate of 40% or more and less than 70%) | 4 (Herbicidal rate of 70% or more and less than 90%) | 0 (Herbicidal rate of 5% or less (almost no effect)) | 5 (Herbicidal rate of 90% or more (almost completely withered)) | 5 (Herbicidal rate of 90% or more (almost completely withered)) | 0 (Herbicidal rate of 5% or less (almost no effect)) | 5 (Herbicidal rate of 90% or more (almost completely withered)) | 3 (Herbicidal rate of 40% or more and less than 70%) | 5 (Herbicidal rate of 90% or more (almost completely withered))
COc1cc(F)ccc1-c1sc2cc(F)ccc2c1-c1c(O)c(C)nn(C)c1=O [3-009] | 5 (Herbicidal rate of 90% or more (almost completely withered)) | 5 (Herbicidal rate of 90% or more (almost completely withered)) | 5 (Herbicidal rate of 90% or more (almost completely withered)) | 3 (Herbicidal rate of 40% or more and less than 70%) | 1 (Herbicidal rate of 5% or more and less than 20%) | 5 (Herbicidal rate of 90% or more (almost completely withered)) | 4 (Herbicidal rate of 70% or more and less than 90%) | 5 (Herbicidal rate of 90% or more (almost completely withered)) | 5 (Herbicidal rate of 90% or more (almost completely withered)) | 5 (Herbicidal rate of 90% or more (almost completely withered)) | 5 (Herbicidal rate of 90% or more (almost completely withered)) | 5 (Herbicidal rate of 90% or more (almost completely withered)) | 5 (Herbicidal rate of 90% or more (almost completely withered)) | 5 (Herbicidal rate of 90% or more (almost completely withered)) | 5 (Herbicidal rate of 90% or more (almost completely withered)) | 5 (Herbicidal rate of 90% or more (almost completely withered)) | 3 (Herbicidal rate of 40% or more and less than 70%)
CCCC(=O)Oc1c(C)nn(C)c(=O)c1-c1c(-c2ccc(F)cc2OC)sc2cc(F)ccc12 [3-010] | 0 (Herbicidal rate of 5% or less (almost no effect)) | 4 (Herbicidal rate of 70% or more and less than 90%) | 5 (Herbicidal rate of 90% or more (almost completely withered)) | 0 (Herbicidal rate of 5% or less (almost no effect)) | 3 (Herbicidal rate of 40% or more and less than 70%) | 3 (Herbicidal rate of 40% or more and less than 70%) | 3 (Herbicidal rate of 40% or more and less than 70%) | 5 (Herbicidal rate of 90% or more (almost completely withered)) | 5 (Herbicidal rate of 90% or more (almost completely withered)) | 5 (Herbicidal rate of 90% or more (almost completely withered)) | 5 (Herbicidal rate of 90% or more (almost completely withered)) | 5 (Herbicidal rate of 90% or more (almost completely withered)) | 5 (Herbicidal rate of 90% or more (almost completely withered)) | 3 (Herbicidal rate of 40% or more and less than 70%) | 4 (Herbicidal rate of 70% or more and less than 90%) | 5 (Herbicidal rate of 90% or more (almost completely withered)) | 4 (Herbicidal rate of 70% or more and less than 90%)
CCOc1cc(F)ccc1-c1sc2cc(F)ccc2c1-c1c(O)c(C)nn(C)c1=O [3-011] | 4 (Herbicidal rate of 70% or more and less than 90%) | 5 (Herbicidal rate of 90% or more (almost completely withered)) | 5 (Herbicidal rate of 90% or more (almost completely withered)) | 4 (Herbicidal rate of 70% or more and less than 90%) | 3 (Herbicidal rate of 40% or more and less than 70%) | 5 (Herbicidal rate of 90% or more (almost completely withered)) | 5 (Herbicidal rate of 90% or more (almost completely withered)) | 5 (Herbicidal rate of 90% or more (almost completely withered)) | 5 (Herbicidal rate of 90% or more (almost completely withered)) | 5 (Herbicidal rate of 90% or more (almost completely withered)) | 5 (Herbicidal rate of 90% or more (almost completely withered)) | 5 (Herbicidal rate of 90% or more (almost completely withered)) | 5 (Herbicidal rate of 90% or more (almost completely withered)) | 5 (Herbicidal rate of 90% or more (almost completely withered)) | 5 (Herbicidal rate of 90% or more (almost completely withered)) | 5 (Herbicidal rate of 90% or more (almost completely withered)) | 4 (Herbicidal rate of 70% or more and less than 90%)
